EP4692059A1, “CATIONIC LIPID HAVING DISULFIDE BOND” (Tohoku University, priority 2023, dated 2024)

Test system: liver
Assay: In vivo gene expression, luciferase luminescence in the liver after tail vein administration (Experimental Example 4)
Conditions: BALB/c mouse, mRNA 0.05 mg/kg

CCCCCCCC/C=C\CCCCCCCC(=O)Oc1ccc(CC(=O)OCCC2CCN(CCSSCCN3CCC(CCOC(=O)Cc4ccc(OC(=O)CCCCCCC/C=C\CCCCCCCC)cc4)CC3)CC2)cc1 [Comparative Example, reference compound]
amount of luminescence (photons/sec) in liver (tail vein, 4.5 hr after administration, LNP cationic lipid:DOPC:Chol:DMG-PEG2k = 52.5:7.5:40:1.5, prepared as in Experimental Example 2): 1.52E+09 photons/sec | relative amount of luminescence (liver luminescence relative to cationic lipid of Comparative Example): 1.00
